This passage reports Ki results from patent US8604061B2, “2-aminooxazolines as TAAR1 ligands” (Hoffmann-La Roche Inc., priority 2007, dated 2013).

One assay deals with TAAR1 (Mus musculus, UniProt Q923Y8). In words: TAAR1 radioligand binding, membranes of stably transfected HEK293 cells (mouse).
Settings: not given
The procedure:
For the construction of expression plasmids the coding sequences of human, rat and mouse TAAR 1 were amplified from genomic DNA essentially as described by Lindemann et al.. The Expand High Fidelity PCR System (Roche Diagnostics) was used with 1.5 mM Mg^2+ and purified PCR products were cloned into pCR2.1-TOPO cloning vector (Invitrogen) following the instructions of the manufacturer. PCR products were subcloned into the pIRESneo2 vector (BD Clontech, Palo Alto, Calif.), and expression vectors were sequence verified before introduction in cell lines.
HEK293 cells (ATCC #CRL-1573) were cultured essentially as described Lindemann et al. (2005). For the generation of stably transfected cell lines HEK293 cells were transfected with the pIRESneo2 expression plasmids containing the TAAR coding sequences (described above) with Lipofectamine 2000 (Invitrogen) according to the instructions of the manufacturer, and 24 hrs post transfection the culture medium was supplemented with 1 mg/ml G418 (Sigma, Buchs, Switzerland). After a culture period of about 10 d clones were isolated, expanded and tested for responsiveness to trace amines (all compounds purchased from Sigma) with the cAMP Biotrak Enzyme immunoassay (EIA) System (Amersham) following the non-acetylation EIA procedure provided by the manufacturer.
Cells at confluence were rinsed with ice-cold phosphate buffered saline without Ca^2+ and Mg^2+ containing 10 mM EDTA and pelleted by centrifugation at 1000 rpm for 5 min at 4° C. The pellet was then washed twice with ice-cold phosphate buffered saline and cell pellet was frozen immediately by immersion in liquid nitrogen and stored until use at −80° C. Cell pellet was then suspended in 20 ml HEPES-NaOH (20 mM), pH 7.4 containing 10 mM EDTA, and homogenized with a Polytron (PT 3000, Kinematica) at 10,000 rpm for 10 s. The homogenate was centrifuged at 48,000×g for 30 min at 4° C. and the pellet resuspended in 20 ml HEPES-NaOH (20 mM), pH 7.4 containing 0.1 mM EDTA (buffer A), and homogenized with a Polytron at 10,000 rpm for 10 s. The homogenate was then centrifuged at 48,000×g for 30 min at 4° C. and the pellet resuspended in 20 ml buffer A, and homogenized with a Polytron at 10,000 rpm for 10 s. Protein concentration was determined by the method of Pierce (Rockford, Ill.). The homogenate was then centrifuged at 48,000×g for 10 min at 4° C., resuspended in HEPES-NaOH (20 mM), pH 7.0 including MgCl2 (10 mM) and […] homogenized with a Polytron at 10,000 rpm for 10 s.
Binding assay was performed at 4° C. in a final volume of 1 ml, and with an incubation time of 30 min. […] Non-specific binding was defined as the amount of [^3H]-rac-2-(1,2,3,4-tetrahydro-1-naphthyl)-2-imidazoline bound in the presence of the appropriate unlabelled ligand (10 μM). Competing ligands were tested in a wide range of concentrations (10 pM-30 μM). […] Each experiment was performed in duplicate. All incubations were terminated by rapid filtration through UniFilter-96 plates (Packard Instrument Company) and glass filter GF/C, pre-soaked for at least 2 h in polyethylenimine 0.3%, and using a Filtermate 96 Cell Harvester (Packard Instrument Company). The tubes and filters were then washed 3 times with 1 ml aliquots of cold buffer B. Filters were not dried and soaked in Ultima gold (45 μl/well, Packard Instrument Company) and bound radioactivity was counted by a TopCount Microplate Scintillation Counter (Packard Instrument Company).
`NC1=NC(CCc2ccccc2)CO1` (racemic) [D, (RS)-4-Phenethyl-4,5-dihydro-oxazol-2-ylamine, reference compound]: the Ki worked out at 0.001 µM.
In the case of `NC1=NC(c2ccc(Cl)cc2)CO1` (racemic) [Example 5, (RS)-4-(4-Chloro-phenyl)-4,5-dihydro-oxazol-2-ylamine], the Ki was 0.0021 µM.
Same read-out and setting: the result for `NC1=NC(c2ccccc2C(F)(F)F)CO1` (racemic) [Example 6, (RS)-4-(2-Trifluoromethyl-phenyl)-4,5-dihydro-oxazol-2-ylamine] reads 0.0038 µM; that for `NC1=NC(c2ccc(F)cc2F)CO1` (racemic) [Example 7, (RS)-4-(2,4-Difluoro-phenyl)-4,5-dihydro-oxazol-2-ylamine], 0.0083 µM; that for `Cc1ccccc1C1COC(N)=N1` (racemic) [Example 8, (RS)-4-o-Tolyl-4,5-dihydro-oxazol-2-ylamine], 0.0058 µM.
Still for that read-out and setting: the result for `NC1=NC(c2ccc(-c3ccccc3)cc2)CO1` (racemic) [Example 10, (RS)-4-Biphenyl-4-yl-4,5-dihydro-oxazol-2-ylamine] reads 0.0025 µM.
The same measure, in the same setting: the result for `NC1=NC(c2ccc(OC(F)(F)F)cc2)CO1` (racemic) [Example 12, (RS)-4-(4-Trifluoromethoxy-phenyl)-4,5-dihydro-oxazol-2-ylamine] reads 0.008 µM; that for `NC1=NC(c2ccc(Cl)c(Cl)c2)CO1` (racemic) [Example 14, (RS)-4-(3,4-Dichlorophenyl)-4,5-dihydro-oxazol-2-ylamine], 0.0005 µM; that for `NC1=NC(c2cc(F)ccc2F)CO1` (racemic) [Example 16, (RS)-4-(2,5-Difluoro-phenyl)-4,5-dihydro-oxazol-2-ylamine], 0.0048 µM.
`NC1=NC(c2ccc(F)c(F)c2F)CO1` (racemic) [Example 17, (RS)-4-(2,3,4-Trifluoro-phenyl)-4,5-dihydro-oxazol-2-ylamine] returned a Ki of 0.0057 µM.
Still for that read-out and setting: the result for `NC1=NC(c2cccc(Cl)c2F)CO1` (racemic) [Example 18, (RS)-4-(3-Chloro-2-fluoro-phenyl)-4,5-dihydro-oxazol-2-ylamine] reads 0.0022 µM.
On the same count and under the same terms, the result for `NC1=NC(c2cc(Cl)ccc2F)CO1` (racemic) [Example 19, (RS)-4-(5-Chloro-2-fluoro-phenyl)-4,5-dihydro-oxazol-2-ylamine] reads 0.0018 µM; that for `NC1=NC(c2ccc(Br)cc2)CO1` (racemic) [Example 20, (RS)-4-(4-Bromo-phenyl)-4,5-dihydro-oxazol-2-ylamine], 0.0009 µM; that for `NC1=NC(c2ccc(OCc3ccccc3)cc2)CO1` (racemic) [Example 22, (RS)-4-(4-Benzyloxy-phenyl)-4,5-dihydro-oxazol-2-ylamine], 0.0011 µM.
Same read-out and setting: the result for `NC1=NC(c2ccc(-c3ccc(Cl)cc3)cc2)CO1` (racemic) [Example 31, (RS)-4-(4′-Chloro-biphenyl-4-yl)-4,5-dihydro-oxazol-2-ylamine] reads 0.0022 µM; that for `NC1=NC(c2ccc3c(c2)OCCO3)CO1` (racemic) [Example 32, (RS)-4-(2,3-Dihydro-benzo[1,4]dioxin-6-yl)-4,5-dihydro-oxazol-2-ylamine], 0.0029 µM.
As for `NC1=NC(c2ccc3ccccc3c2)CO1` (racemic) [Example 33, (RS)-4-Naphthalen-2-yl-4,5-dihydro-oxazol-2-ylamine], the Ki came out at 0.0007 µM.
For the molecule `NC1=NC(c2cccc3ccccc23)CO1` (racemic) [Example 34, (RS)-4-Naphthalen-1-yl-4,5-dihydro-oxazol-2-ylamine], the Ki came to 0.0011 µM.
Same read-out and setting: the figure for `COc1ccc(C2COC(N)=N2)cc1C` (racemic) [Example 35, (RS)-4-(4-Methoxy-3-methyl-phenyl)-4,5-dihydro-oxazol-2-ylamine] is 0.0033 µM; for `COc1ccc(C2COC(N)=N2)cc1Cl` (racemic) [Example 36, (RS)-4-(3-Chloro-4-methoxyphenyl)-4,5-dihydro-oxazol-2-ylamine] it is 0.0034 µM.
Still for that read-out and setting: the figure for `NC1=NC(C2CCc3ccccc3C2)CO1` (racemic) [Example 84, (RS)-4-(1,2,3,4-Tetrahydro-naphthalen-2-yl)-4,5-dihydro-oxazol-2-ylamine] is 0.0017 µM; for `NC1=NC(c2cccc(Cl)c2)CO1` (racemic) [Example 185, (RS)-4-(3-Chloro-phenyl)-4,5-dihydro-oxazol-2-ylamine] it is 0.005 µM.
The same measure, in the same setting: the result for `NC1=NC(c2cccc(Br)c2)CO1` (racemic) [Example 186, (RS)-4-(3-Bromo-phenyl)-4,5-dihydro-oxazol-2-ylamine] reads 0.0045 µM; that for `NC1=NC(c2cc(Cl)cc(Cl)c2)CO1` (racemic) [Example 189, (RS)-4-(3,5-Dichloro-phenyl)-4,5-dihydro-oxazol-2-ylamine], 0.0008 µM; that for `NC1=NC(c2ccc(F)cc2C(F)(F)F)CO1` (racemic) [Example 224, (RS)-4-(4-Fluoro-2-trifluoromethyl-phenyl)-4,5-dihydro-oxazol-2-ylamine], 0.0063 µM.
`NC1=NC(c2cc(Cl)ccc2C(F)(F)F)CO1` (racemic) [Example 225, (RS)-4-(5-Chloro-2-trifluoromethyl-phenyl)-4,5-dihydro-oxazol-2-ylamine]: the Ki came to 0.0062 µM.
`NC1=NC(c2ccc(Cl)cc2C(F)(F)F)CO1` (racemic) [Example 226, (RS)-4-(4-Chloro-2-trifluoromethyl-phenyl)-4,5-dihydro-oxazol-2-ylamine] registered a Ki of 0.0054 µM.
Same read-out and setting: the figure for `COc1ccc(C2COC(N)=N2)c(C(F)(F)F)c1` (racemic) [Example 229, (RS)-4-(4-Methoxy-2-trifluoromethyl-phenyl)-4,5-dihydro-oxazol-2-ylamine] is less than 3 µM; for `NC1=NC(c2cc(Cl)c(Cl)cc2C(F)(F)F)CO1` (racemic) [Example 234, (RS)-4-(4,5-Dichloro-2-trifluoromethyl-phenyl)-4,5-dihydro-oxazol-2-ylamine] it is 0.0093 µM; for `NC1=NC(c2ccc(Cl)cc2Cl)CO1` (racemic) [Example 235, (RS)-4-(2,4-Dichloro-phenyl)-4,5-dihydro-oxazol-2-ylamine] it is 0.001 µM.
Same read-out and setting: the result for `NC1=NC(c2ccccc2Br)CO1` (racemic) [Example 237, (RS)-4-(2-Bromo-phenyl)-4,5-dihydro-oxazol-2-ylamine] reads 0.0025 µM; that for `NC1=NC(c2cc(F)ccc2C(F)(F)F)CO1` (racemic) [Example 249, (RS)-4-(5-Fluoro-2-trifluoromethyl-phenyl)-4,5-dihydro-oxazol-2-ylamine], 0.0075 µM.
The same measure, in the same setting: the result for `Cc1ccc(F)cc1C1COC(N)=N1` (racemic) [Example 250, (RS)-4-(5-Fluoro-2-methyl-phenyl)-4,5-dihydro-oxazol-2-ylamine] reads 0.0022 µM; that for `NC1=NC(c2ccc(Br)c(F)c2)CO1` (racemic) [Example 252, (RS)-4-(4-Bromo-3-fluoro-phenyl)-4,5-dihydro-oxazol-2-ylamine], 0.0008 µM.
The molecule `NC1=NC(c2cc(Cl)ccc2Cl)CO1` (racemic) [Example 260, (RS)-4-(2,5-Dichloro-phenyl)-4,5-dihydro-oxazol-2-ylamine] came in with a Ki of 0.0013 µM.

The assay is the same for the next values; noted with them: mouse/rat; cell not marked 'rat'; radioligand [3H]-rac-2-(1,2,3,4-tetrahydro-1-naphthyl)-2-imidazoline, 4° C.; read-out: Ki (μM) mouse/rat.
Turning to `Cc1ccc(F)c(CC2COC(N)=N2)c1` (racemic) [Example 73, (RS)-4-(2-Fluoro-5-methyl-benzyl)-4,5-dihydro-oxazol-2-ylamine], the Ki came to 0.0089 µM.
Still for that read-out and setting: the result for `CC1(CCc2ccccc2)COC(N)=N1` (racemic) [Example 78, (RS)-4-Methyl-4-phenethyl-4,5-dihydro-oxazol-2-ylamine] reads 0.0064 µM.
The same measure, in the same setting: the figure for `CC1(c2cc(F)c(F)cc2F)COC(N)=N1` (racemic) [Example 251, (RS)-4-Methyl-4-(2,4,5-trifluoro-phenyl)-4,5-dihydro-oxazol-2-ylamine] is 0.0086 µM.
